# Test results from patent US5030638A, “Method of antiviral enhancement” (priority 1990, dated 1991).
# Like-named read-outs stand apart in the source and are kept apart here.
# How the values were obtained:
# [1] = system: glucosidase; details: Fleet et al.; cited from earlier work
# [2] = system: HIV; details: cited from earlier work; for HIV inhibitory / antiviral activity: literature
# [3] = target: T1, yeast α-glucosidase (Saccharomyces cerevisiae, UniProt P53341); test: Alpha-glucosidase inhibition assay, pH 7.4; assay type: biochemical
# T1 construct: purchased Sigma
# T1 sequence (P53341 whole entry): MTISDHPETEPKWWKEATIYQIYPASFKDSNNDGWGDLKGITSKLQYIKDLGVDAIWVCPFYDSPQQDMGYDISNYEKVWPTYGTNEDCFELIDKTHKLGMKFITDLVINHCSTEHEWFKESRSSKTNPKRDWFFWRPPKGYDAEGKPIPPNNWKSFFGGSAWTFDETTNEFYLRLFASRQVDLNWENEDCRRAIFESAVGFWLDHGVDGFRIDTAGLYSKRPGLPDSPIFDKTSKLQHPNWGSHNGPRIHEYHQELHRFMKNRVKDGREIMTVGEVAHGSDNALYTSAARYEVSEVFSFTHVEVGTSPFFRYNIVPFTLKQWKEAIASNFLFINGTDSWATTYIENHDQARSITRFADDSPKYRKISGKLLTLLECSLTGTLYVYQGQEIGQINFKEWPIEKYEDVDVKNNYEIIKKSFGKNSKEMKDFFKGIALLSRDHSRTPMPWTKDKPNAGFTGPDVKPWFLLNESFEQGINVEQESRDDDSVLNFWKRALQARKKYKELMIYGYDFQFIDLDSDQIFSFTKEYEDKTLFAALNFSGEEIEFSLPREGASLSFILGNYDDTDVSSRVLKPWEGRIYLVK
# Procedure: (§1) Yeast alpha-glucosidase and almond beta-glucosidase activities were measured by a modification of the method of Evans, et al., Phytochemistry 22, 768-770 (1983). The modifications included 1) assay of activities at pH 7.4 in HEPES (N-2-hydroxyethylpiperazine-N'-2-ethanesulfonic acid) buffer, 2) measurement in 96 well microtiter plates and 3) inclusion of 10% DMSO in control and test samples.
# (§2) The release of p-nitrophenol from the substrate p-nitrophenylglycoside was measured spectrophotometrically in the presence and absence of test compound. Each assay included a known inhibitor of the enzyme as a standard.
# To 100 μl 50 mM HEPES buffer, pH 7.4, in a microtiter plate, add 20 μl test compound in DMSO (DMSO alone in control), 40 μl (0.013 units) yeast alpha-glucosidase (Sigma) in HEPES buffer and pre-incubate at room temperature for 15 minutes. Add 40 μl 1.25 mM p-nitrophenyl-alpha-D-glucopyranoside (Sigma) in HEPES buffer, as substrate, and monitor absorbance change at 405 nm in Biotek EIA Auto-reader. Absorption change was measured at 15 to 25 minutes (reaction was linear for at least 30 minutes). Each sample was tested in triplicate. […] Deoxynojirimycin was used as standard inhibitor.
# [4] = system: visna virus; test: Plaque reduction assay, inhibition of visna virus in vitro; assay type: cell-based; details: Visna-maedi virus, read-out: Antiviral Activity (plaque reduction)
# Procedure: (§3) Sheep choroid plexus(SCP) cells were obtained from American Type Culture Collection (ATCC) catalogue number CRL 1700 and were routinely passaged in vitro in Dulbecco's Modified Eagles (DME) medium supplemented with 20% fetal bovine serum (FBS). SCP cells were passaged once per week at a 1:2 or 1:3 split ratio. Visna was titrated by plaque assay in six-well plates. Virus pools were stored at -70° C.
# (§4) SCP cells were cultured in 6-well plates to confluence. Wells were washed two times with serum free Minimal Essential Medium (MEM) to remove FBS. 0.2 ml of virus was added per well in MEM supplemented with 4 mM glutamine and gentamycin. After 1 hour adsorption, the virus was aspirated from each well. The appropriate concentration of each compound in 5 ml of Medium 199 (M-199) supplemented with 2% lamb serum, 4 mM glutamine, 0.5% agarose and gentamycin was added to each well. […] To terminate the test: cultures were fixed in 10% formalin, the agar removed, the monolayers stained with 1% crystal violet and plaques counted. Each compound concentration was run in triplicate. […] 0 is no toxicity observed while 4 is total lysing of the cell monolayer.
# [5] = Solubility in aqueous solvent (antiviral test); assay type: physicochemical
# [6] = system: HIV-1, strain HTLV-IIIB; test: Reduction of cytopathogenic effect (CPE) in HIV-1 infected CEM cells, MTT assay; assay type: cell-based; details: for inhibition at 1 µg/mL / inhibition at 3.2 µg/mL / inhibition at 10 µg/mL / inhibition at 32 µg/mL / inhibition at 500 µg/mL / inhibition at 100 µL/mL / IC50: Human immunodeficiency virus 1, IIIB, CCRF-CEM, 216 h; for inhibition at 1 µg/mL: 1.0 μg/ml; for inhibition at 1 µg/mL / inhibition at 3.2 µg/mL / inhibition at 10 µg/mL / inhibition at 32 µg/mL / inhibition at 500 µg/mL / inhibition at 100 µL/mL: read-out: Percent Reduction of CPE; for inhibition at 3.2 µg/mL: 3.2 μg/ml; for inhibition at 10 µg/mL: 10 μg/ml; for inhibition at 32 µg/mL: 32 μg/ml; for inhibition at 500 µg/mL: 500 μg/ml; for inhibition at 100 µL/mL: 100 μl/ml (so in the source); for IC50: read-out: ID50 (median inhibitory dose); for inhibition of HIV-1: in vitro
# Procedure: These tests involved plating of susceptible human host cells which are syncytium-sensitive with and without virus in microculture plates, adding various concentrations of the test compound, incubating the plates for 9 days (during which time infected, non-drug treated control cells are largely or totally destroyed by the virus), and then determining the number of remaining viable cells using a colorimetric endpoint.
# Tissue culture plates were incubated at 37° C. in a humidified, 5% CO2 atmosphere and observed microscopically for toxicity and/or cytopathogenic effect (CPE). At 2 and 6 days after infection, fresh dilutions of each test article were prepared from the frozen stock, and a 20 μl volume of each dilution (prepared as a 10× concentration was added to the appropriate wells of both infected and uninfected cells.
# On the 9th day post-infection, the cells in each well were resuspended and a 100 μl sample of each cell suspension was removed for use in an MTT assay. A 20 μl volume of a 5 mg/ml solution of 3-(4,5-dimethylthiazol-2-yl)-2,5-diphenyltetrazolium bromide (MTT) was added to each 100 μl cell suspension, and the cells were incubated at 37° C. in 5% CO2 for 4 hours. […] A 100 μl volume of a solution of 10% sodium dodecyl sulfate in 0.01N hydrochloric acid wa added to each sample, and the samples were incubated overnight. The absorbance at 590 nm was determined for each sample using a Molecular Devices Vmax microplate reader. This assay detects drug-induced suppression of viral CPE, as well as drug cytotoxicity, by measuring the generation of MTT-formazan by surviving cells.
# Assays were done in 96-well tissue culture plates. CEM cells were treated with polybrene at a concentration of 2 μg/ml, and an 80 μl volume of cells (1×10^4 cells) was dispensed into each well. A 100 μl volume of each test article dilution (prepared as a 2× concentration) was added to 5 wells of cells, and the cells were incubated at 37° C. for 1 hour. A frozen culture of HIV-1, strain HTLV-IIIB, was diluted in culture medium to a concentration of 5×10^4 TCID50 per ml, and a 20 μl volume (containing 10^3 TCID50 of virus) was added to 3 of the wells for each test article concentration. […] A 20 μl volume of normal culture medium was added to the remaining wells to allow evaluation of cytotoxicity. Each plate contained 6 wells of untreated, uninfected, cell control samples and 6 wells of untreated, infected, virus control samples. Dideoxycytidine (DDC) and dideoxyadenosine (DDA) were included as positive control compounds.
# [7] = system: Sheep choroid plexus (SCP) cells; test: Toxicity in control wells (without virus) of the plaque reduction assay; assay type: cell-based; design: key: 0: no toxicity; 4: total cell lysates; details: graded 0 to 4
# Procedure: as §3, §4
# Toxicity graded on 0 to 4 scale 0 = no toxicity, 4 = total cell lysates
# [8] = target: almond β-glucosidase; test: Beta-glucosidase inhibition assay, pH 7.4; assay type: biochemical; details: for IC50: read-out: Enzyme Inhibition-IC50, Almond β-Glucosidase pH 7.4; for Inhibition Index (first, head is drawing 3) / Inhibition Index (second, head is drawing 4): ratio of IC50 values; for Inhibition Index (first, head is drawing 3): numerically almond pH 4.8 / almond pH 7.4; for Inhibition Index (second, head is drawing 4): numerically yeast α pH 7.4 / almond β pH 7.4
# Procedure: as §1, §2
# To 100 μl 50 mM HEPES buffer, pH 7.4, in a microtiter plate, add 20 μl test compound in DMSO (DMSO alone in control), 40 μl (0.136 units) beta-glucosidase (Sigma) in HEPES buffer and pre-incubate at room temperature for 15 minutes. Add 40 μl 1.25 mM p-nitrophenyl-beta-D-glucopyranoside in HEPES buffer, as substrate and monitor absorbance change at 405 nm in a Biotek EIA Autoreader. Absorption change was measured at 15 to 25 minutes (reaction is linear for at least 30 minutes). Each sample was tested in triplicate. […] Castanospermine was used as standard inhibitor.
# [9] = target: glucosidase I; details: Schweden et al.; compared to N-methyl- and N-butyl-derivatives; cited from earlier work
# [10] = target: almond β-glucosidase; test: Beta-glucosidase inhibition assay, pH 4.8; assay type: biochemical; details: for IC50: read-out: Enzyme Inhibition-IC50, Almond β-Glucosidase pH 4.8
# Procedure: as §1, §2
# To 100 μl 50 mM sodium citrate buffer, pH 4.8, in a microtiter plate, add 15 μl test compound in DMSO (DMSO alone in control), 20 μl (0.017 units) beta-glucosidase (Sigma) in citrate buffer and pre-incubate at room temperature for 15 minutes. Add 25 μl 2.50 mM p-nitrophenyl-beta-D-glucopyranside in citrate buffer, as substrate. […] Add 50 μl 0.4M NaOH. Read absorption change at 405 nm in a Biotek EIA Autoreader. Each sample was tested in triplicate. […] Castanospermine was used as standard inhibitor.
# [11] = in vivo; cited from earlier work
# [12] = Preliminary pharmacokinetic tests in rats, total radioactivity in the blood; details: rat
# [13] = Assay for excretion of metabolites in urine of rats; assay type: in vivo, rat
# [14] = rat
# [15] = HIV-1, CEM cells, reduction of CPE
smiles,measurement,setting,value
"OC[C@H]1NC[C@@H](O)[C@@H]1O (single isomer, unassigned) [L-enantiomer, 1,4-dideoxy-1,4-imino-arabinitol]",glucosidase inhibition,[1],known glucosidase inhibitors
same,HIV inhibitory / antiviral activity,[2],strong HIV inhibitory activity
"CCCCCCN1C[C@H](O)[C@@H](O)[C@H](O)[C@H]1CO [Example 2, 1,5-(Hexylimino)-1,5-dideoxy-D-glucitol]",IC50,"[3]; pH 7.4, read-out: Enzyme Inhibition-IC50, Yeast α-Glucosidase pH 7.4",371 µM
same,inhibition at 1 µM,[4]; 1 μM,100%
same,inhibition at 10 µM,[4]; 10 μM,94%
same,Solubility,[5],Solubility problem; compound did not completely dissolve
same,ID50 compared to N-butyl-DNJ,"[6]; HIV-1, CEM cells",advantageous reduction in ID50
same,inhibition at 1 µg/mL,[6],0%
same,inhibition at 3.2 µg/mL,[6],15.6%
same,inhibition at 10 µg/mL,[6],65.6%
same,inhibition at 32 µg/mL,[6],68%
same,inhibition at 500 µg/mL,[6],147%
same,inhibition at 100 µL/mL,[6],65.1%
same,IC50,[6]; [15],7.3 µg/mL
same,inhibition of HIV-1,[6],demonstrated to inhibit HIV-1
same,Toxicity,[7]; 1 μM,2
same,Toxicity,[7]; 10 μM,0
same,IC50,[8]; pH 7.4,4.8 µM
same,"Inhibition Index (first, head is drawing 3)",[8],30
same,"Inhibition Index (second, head is drawing 4)",[8],77.3
same,"Ki, glucosidase I",[9],greater Ki values than the N-methyl- and N-butyl-derivatives
same,IC50,[10],144 µM
"CCCCN1C[C@H](O)[C@@H](O)[C@H](O)[C@H]1CO [N-Butyl-DNJ, Nbutyl-deoxynojirimycin, reference compound]",gastrointestinal side effects,[11],gastrointestinal side effects seen
same,t1/2 in vivo,[12],1.24 h
same,IC50,[3],536 µM
same,reduction of infectious viral particles,"[2]; Karpas et al., at nontoxic concentrations",greater than five
same,HIV inhibitory / antiviral activity,[2],significant antiviral activity
same,inhibition at 10 µM,[4]; 10 μM,57%
same,inhibition at 1000 µM,[4]; 1 mM,100%
same,Solubility,[5],Solubility problem; compound did not completely dissolve
same,inhibition at 10 µg/mL,[6],42.6%
same,inhibition at 32 µg/mL,[6],49.8%
same,inhibition at 500 µg/mL,[6],50.7%
same,inhibition at 100 µL/mL,[6],53.3%
same,IC50,[6]; [15],34 µg/mL
same,Toxicity,[7]; 10 μM,0
same,Toxicity,[7]; 1 mM,0
same,metabolism,[13],not metabolized
"CCCCCCCCCCN1C[C@H](O)[C@@H](O)[C@H](O)[C@H]1CO [N-decyl-derivatives, reference compound]","Ki, glucosidase I",[9],greater Ki values than the N-methyl- and N-butyl-derivatives
"CCCCCCCCCN1C[C@H](O)[C@@H](O)[C@H](O)[C@H]1CO [Example 3, 1,5(Nonylimino)-1,5-dideoxy-D-glucitol]",IC50,[3],267 µM
same,inhibition at 10 µM,[4],69%
same,inhibition at 1000 µM,[4],100%
same,ID50 compared to N-butyl-DNJ,"[6]; HIV-1, CEM cells",advantageous reduction in ID50
same,IC50,[6],6.9 µg/mL
same,inhibition at 1 µg/mL,[6],0%
same,inhibition at 3.2 µg/mL,[6],25.7%
same,inhibition at 10 µg/mL,[6],62.5%
same,inhibition at 32 µg/mL,[6],28.9%
same,inhibition of HIV-1,[6],demonstrated to inhibit HIV-1
same,Toxicity,[7]; 10 μM,0
same,Toxicity,[7]; 1 mM,4
same,IC50,[8]; pH 7.4,18 µM
same,"Inhibition Index (first, head is drawing 3)",[8],10.8
same,"Inhibition Index (second, head is drawing 4)",[8],14.8
same,metabolism,[13],metabolized
same,IC50,[10],196 µM
same,t1/2 in vivo,[14],6.24 h
"CCCCCCCCCCCCCCN1C[C@H](O)[C@@H](O)[C@H](O)[C@H]1CO [Example 4, 1,5-(Tetradecylimino)-1,5-dideoxy-D-glucitol]",inhibition at 10 µM,"[3]; pH 7.4, at 10 μM, read-out: Enzyme Inhibition, Yeast α-Glucosidase pH 7.4",0%
same,inhibition at 10 µM,[4]; 10 μM,84%
same,inhibition at 100 µM,[4]; 0.1 mM,100%
same,inhibition at 1000 µM,[4]; 1 mM,100%
same,Toxicity,[7]; 10 μM,1
same,Toxicity,[7]; 0.1 mM,4
same,Toxicity,[7]; 1 mM,4
same,"Enzyme Inhibition, Almond β-Glucosidase pH 7.4","[8]; pH 7.4, at 10 μM",31%
same,"Enzyme Inhibition, Almond β-Glucosidase pH 4.8",[10]; at 10 μM,22%
"OC[C@H]1NC[C@@H](O)[C@@H]1O (single isomer, unassigned) [D-enantiomer, 1,4-dideoxy-1,4-imino-arabinitol]",glucosidase inhibition,[1],known glucosidase inhibitors
same,HIV inhibitory / antiviral activity,[2],very little effect on HIV replication
